Each structure is given as a SMILES string.

The subject of experiment [1] is fear memories (freezing behavior). Description: cued fear conditioning test. To be noted: for effect on fear acquisition (in words): FIG. 62A. In kind it is in vivo, rat. The protocol: Cued fear conditioning test: On day 1, animals were habituated to the sound attenuating fear conditioning chamber (Kinder Scientific, Poway, CA) for 10 min. Between each animal, the chamber was cleaned with 70% ethanol. On day 2, acquisition of fear was achieved by placing rats back into the chamber for a 120 s acclimation period and then five pairings (120 s inter-trial interval) of the conditioned stimulus (CS; 20 s, 80 dB) followed immediately by the unconditioned shock stimulus (US; 500 ms, 0.8 mA foot shock). On day 3, CS consolidation was assessed by placing the rats back into the chamber with a 120 s acclimation period followed by five presentations of the CS only (20 s, 80 dB) with 120 s inter-trial-intervals. On day 4, extinction was assessed by presenting a 120 s acclimation period followed by 20 trials of the CS (20 s, 80 dB) with 120 s inter-trial-intervals. The same experimenter (SDF) handled the rats during all sessions and was blinded to the treatment. All trials were digitally video-recorded. For this behavioral test and all others, blind scoring was aided by modification of video file names by AIM. Freezing behavior (no visible signs of movement) was scored by SDF during the sound presentation and converted to percentage of total time. The acquisition, expression, extinction and recall of fear memories were assessed in a […] learning paradigm (modified from Johnson, P. L., et al., Pharmacological depletion of serotonin in the basolateral amygdala complex reduces anxiety and disrupts fear conditioning, Pharmacol Biochem Behav, 2015. 138: p. 174-9). Rats were habituated to the sound attenuating fear conditioning chamber on day 1 (Kinder Scientific, Poway, CA) for 10 min. For all experiments, the chamber was cleaned between animals. On day 2 acquisition of fear occurred where the rats were placed back into the chamber and after a 120 s acclimation period received 5 pairings (120 s inter-trial interval) of the conditioned stimulus (CS; 20 s, 80 dB) followed immediately by the unconditioned shock stimulus (US; 500 ms, 0.8 mA foot shock). On day 3 conditioned stimulus (CS) consolidation was assessed by placing the rats back into the chamber with a 120 s acclimation period followed by 5 presentations of the CS only (20 s, 80 dB) separated by 120 s. On day 4 extinction was assessed which consisted of the 120 s acclimation period followed by 20 trials of the CS (20 s, 80 dB) separated by 120 s intervals. On day 5, all animals were assessed for the recall. Animals were placed in the chamber and were presented with 5 tones. The same experimenter handled the rats during all sessions and was blinded to the phenotype. All trials were digitally video-recorded. Freezing behavior (no visible signs of movement) was scored by a blind scorer during the sound presentation and converted to percentage of total time.

Another experiment concerns the target T1, GIRK1/2 (UniProt P48542+P48549).
T1 sequence (P48549 1-501): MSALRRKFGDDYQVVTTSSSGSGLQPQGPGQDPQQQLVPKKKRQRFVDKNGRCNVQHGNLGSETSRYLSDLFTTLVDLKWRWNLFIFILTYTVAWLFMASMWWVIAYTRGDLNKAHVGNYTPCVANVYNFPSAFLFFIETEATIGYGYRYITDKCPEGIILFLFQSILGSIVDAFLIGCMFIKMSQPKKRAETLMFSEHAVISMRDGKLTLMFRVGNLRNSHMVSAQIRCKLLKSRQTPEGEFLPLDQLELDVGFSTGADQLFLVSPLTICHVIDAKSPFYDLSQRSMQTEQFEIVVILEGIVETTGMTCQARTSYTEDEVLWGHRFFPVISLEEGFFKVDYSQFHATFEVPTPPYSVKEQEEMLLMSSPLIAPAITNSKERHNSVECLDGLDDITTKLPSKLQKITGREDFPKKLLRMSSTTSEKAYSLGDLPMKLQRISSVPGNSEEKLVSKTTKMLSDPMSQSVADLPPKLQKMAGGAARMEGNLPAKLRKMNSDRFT
T1 sequence (P48542 1-425): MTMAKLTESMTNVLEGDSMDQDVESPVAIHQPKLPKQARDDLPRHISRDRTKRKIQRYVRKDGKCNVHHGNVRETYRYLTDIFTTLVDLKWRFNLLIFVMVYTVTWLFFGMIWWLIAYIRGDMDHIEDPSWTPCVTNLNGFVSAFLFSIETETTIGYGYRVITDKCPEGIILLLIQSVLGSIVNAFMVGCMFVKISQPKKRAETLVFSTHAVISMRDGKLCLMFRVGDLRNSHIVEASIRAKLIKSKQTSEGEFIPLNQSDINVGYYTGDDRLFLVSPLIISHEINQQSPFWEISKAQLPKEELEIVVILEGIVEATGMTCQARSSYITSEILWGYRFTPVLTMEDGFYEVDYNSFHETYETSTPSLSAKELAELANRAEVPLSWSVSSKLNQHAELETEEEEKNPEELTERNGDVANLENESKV
Put plainly: diC8-PIP2 concentration-response (NPo), inside-out macropatches from Xenopus oocytes, GIRK1/2. It counts as cell-based, human GIRK1, mouse GIRK2. The arrangement: expressed in transfected cells; host or cells: Xenopus laevis oocytes (cRNA injection). The following applies: in the presence of 10 μM compound; for EMAX of diC8-PIP2 response (NPo), GIRK1/2: control 5.7±0.3; for apparent affinity of GIRK1/2 channels to diC8-PIP2: control 36±7 μM. An excerpt: The inventors next turned to inside-out macropatches from Xenopus oocytes to compare changes in the PIP2 sensitivity by examining diC8 concentration-responses in the absence and presence of saturating concentrations of each of the activating compounds. […] In FIG. 14B, the control plot overlays the GAT1508 and GAT1521 plots; only ML297 was able to left-shift the sensitivity of GIRK1/4 heteromers to PIP2, while both GAT1508 and GAT1521 were ineffective in changing the sensitivity of these heteromers to PIP2.
Xenopus laevis oocyte expression: Plasmid DNAs of GIRK channel subunits were linearized prior to in vitro transcription. Capped RNAs were transcribed using mMESSAGE mMACHINE T7 Transcription Kit (Thermo Fisher Scientific). Xenopus oocytes were surgically extracted, dissociated and defolliculated by collagenase treatment, and microinjected with 50 nl of a water solution containing 1 ng of each GIRK subunit RNA. For TEVC experiments, oocytes were kept 2 days at 17° C. before recording, while for NPo experiments oocytes were incubated for up to 4 days at 17° C.
Oocyte macropatch studies: Macropatch GIRK channel activity was recorded from devitellinized oocytes under the inside-out mode of standard patch clamp methods using an AM2400 patch clamp amplifier (A-M systems). […] Oocytes were bathed with a solution comprising (in mM): 96 KCl, 5 EGTA, 1 MgATP and 10 HEPES (pH 7.4). Current amplitudes were measured at −80 mV with a sampling rate of 10 kHz. Data were analyzed using WinEDR and Clampfit software (Molecular Devices).

Where [2] appears, read: 10 or 30 mg/kg i.p., FIGS. 27, 28.
[3] abbreviates: 10 or 30 mg/kg i.p., after acquisition and 30 min prior to consolidation, FIGS. 27, 28.
The mark [4] stands for this setting: 30 mg/kg, vehicle tone 5 (GAT1521 study), tone 6 (ML297 study).

On to `Cc1cc(NC(=O)Nc2ccc(Br)s2)n(-c2ccccc2)n1` [GAT1508, 1-(5-bromothiophen-2-yl)-3-(3-methyl-1-phenyl-1H-pyrazol-5-yl)urea], for which, in experiment [1] (10 mg/kg), the “effect on fear acquisition (in words)” value was “no significant effects”. Also, the “effect on fear consolidation (in words)” value in experiment [1] (10 mg/kg, FIG. 62B) is reported as “no significant effects”. Also, the “effect on fear acquisition (in words)” value in experiment [1] (30 mg/kg, early pairings) is given as “significant reductions in fear acquisition”. Further, the “extinction of fear memories versus vehicle (in words)” value in experiment [1] (setting [2]) is reported as “extinguished fear memories much faster”. The “effect on consolidation of fear memories (in words)” value (“effect on consolidation” for short) in experiment [1] (setting [3]) is “no effects”. Moreover, the “recall of the freezing behavior (in words)” value in experiment [1] (FIG. 62E) is “No significant changes”. Also, the “tone by which freezing was significantly reduced during extinction” value in experiment [1] (GAT1508 group, control group tone 7) worked out at 4 tone. The “fear extinction of the freezing behavior (in words)” value in experiment [1] (follow-up experiments, FIGS. 62C-62D, 63) was “more efficient extinction of the freezing behavior”. In addition, at GIRK1/2, the “EMAX of diC8-PIP2 response (NPo), GIRK1/2” value (“EMAX of diC8-PIP2 response” below) is recorded as 10.5±0.3 and the “apparent affinity of GIRK1/2 channels to diC8-PIP2” value (“apparent affinity” below) came to 5.5 ± 7 µM.
For `Cc1cc(NC(=O)Nc2ccc(C)s2)n(-c2ccccc2)n1` [GAT1521, 1-(3-methyl-1-phenyl-1H-pyrazol-5-yl)-3-(5-methylthiophen-2-yl)urea], in experiment [1] (setting [4]), the “tone by which freezing was significantly reduced during extinction” value came out at 3 tone. Also, the “extinction of fear memories versus vehicle (in words)” value in experiment [1] (setting [2]) is given as “significantly reduced overall freezing during extinction”. Further, in experiment [1] (setting [3]), the “effect on consolidation” value is on record as “affected consolidation of fear memories”. On GIRK1/2, the “EMAX of diC8-PIP2 response” value is 9.1±0.2 and the “apparent affinity” value came to 11 ± 2 µM.
With `Cc1cc(NC(=O)Nc2ccc(F)c(F)c2)n(-c2ccccc2)n1` [ML297, reference compound], in experiment [1] (30 mg/kg, FIG. 29), the “effect on consolidation” value is on record as “no effect” and the “extinction of fear memories versus controls (in words)” value is “no significant differences”. In experiment [1] (setting [4]), the “tone by which freezing was significantly reduced during extinction” value is recorded as 6 tone. For the same compound, at GIRK1/2, the “EMAX of diC8-PIP2 response” value amounted to 7.5±0.4 and the “apparent affinity” value is 23 ± 5 µM.
